In ChEMBL document CHEMBL4196088, “Induction of cell killing and autophagy by amphiphilic pyrrolidine derivatives on human pancreatic cancer cells” (Eur J Med Chem, 2018):
One block for each compound: values may come before it. Calls of active or inactive are those of the source. The rule behind the calls is not given here.

Tests used:
Fibroblast [1] = assay: Induction of apoptosis in human primary fibroblasts at 20 uM after 48 hrs by propidium iodide staining based flow cytometry (reference value: 6.1%); assay type: cell-based
BXPC-3 [2] = assay: Induction of apoptosis in human BxPC3 cells assessed as accumulation at sub-G0/G1 phase at 20 uM after 24 hrs by propidium iodide staining based flow cytometry (reference value: 2.3%); assay type: functional
PANC-1 [3] = assay: Induction of apoptosis in human PANC1 cells assessed as accumulation at sub-G0/G1 phase at 20 uM after 72 hrs by propidium iodide staining based flow cytometry (reference value: 1.6 to 3.2%); assay type: functional
PK9 [4] = assay: Induction of apoptosis in human PK9 cells assessed as accumulation at sub-G0/G1 phase at 20 uM after 72 hrs by propidium iodide staining based flow cytometry (reference value: 4%); assay type: functional
BXPC-3 [5] = assay: Induction of apoptosis in human BxPC3 cells assessed as accumulation at sub-G0/G1 phase at 20 uM after 48 hrs by propidium iodide staining based flow cytometry (reference value: 2.8%); assay type: functional
BXPC-3 [6] = assay: Induction of apoptosis in human BxPC3 cells harboring pSFFV-Bcl-XL assessed as accumulation at sub-G0/G1 phase at 10 uM after 24 hrs by propidium iodide staining based flow cytometry (reference value: 1.5%); assay type: functional
PK9 [7] = assay: Induction of apoptosis in human PK9 cells assessed as accumulation at sub-G0/G1 phase at 20 uM after 24 hrs by propidium iodide staining based flow cytometry (reference value: 2.2%); assay type: functional
PK9 [8] = assay: Induction of apoptosis in human PK9 cells assessed as accumulation at sub-G0/G1 phase at 10 uM after 72 hrs by propidium iodide staining based flow cytometry (reference value: 4%); assay type: functional
[9] = Induction of apoptosis in HPNE cells assessed as accumulation at sub-G0/G1 phase at 10 uM after 72 hrs by propidium iodide staining based flow cytometry (reference value: 6.6%); assay type: cell-based; conditions: human
PK9 [10] = assay: Induction of apoptosis in human PK9 cells assessed as accumulation at sub-G0/G1 phase at 10 uM after 48 hrs by propidium iodide staining based flow cytometry (reference value: 3.8%); assay type: functional
BXPC-3 [11] = assay: Induction of apoptosis in human BxPC3 cells assessed as accumulation at sub-G0/G1 phase at 10 uM after 72 hrs by propidium iodide staining based flow cytometry (reference value: 3.4%); assay type: functional
PANC-1 [12] = assay: Induction of apoptosis in human PANC1 cells assessed as accumulation at sub-G0/G1 phase at 20 uM after 48 hrs by propidium iodide staining based flow cytometry (reference value: 0.2 to 2.9%); assay type: functional
BXPC-3 [13] = assay: Induction of apoptosis in human BxPC3 cells harboring pSFFV-Bcl-XL assessed as accumulation at sub-G0/G1 phase at 10 uM after 48 hrs by propidium iodide staining based flow cytometry (reference value: 1.9%); assay type: functional
[14] = Induction of apoptosis in HPNE cells assessed as accumulation at sub-G0/G1 phase at 20 uM after 48 hrs by propidium iodide staining based flow cytometry (reference value: 0.7%); assay type: cell-based; conditions: human
PK9 [15] = assay: Induction of apoptosis in human PK9 cells assessed as accumulation at sub-G0/G1 phase at 10 uM after 24 hrs by propidium iodide staining based flow cytometry (reference value: 2.2%); assay type: functional
[16] = Induction of apoptosis in HPNE cells assessed as accumulation at sub-G0/G1 phase at 20 uM after 24 hrs by propidium iodide staining based flow cytometry (reference value: 0.6%); assay type: cell-based; conditions: human
HeLa = assay: Growth inhibition of human HeLa cells after 72 hrs; assay type: functional, cell-based
Fibroblast [17] = assay: Induction of apoptosis in human primary fibroblasts assessed as accumulation at sub-G0/G1 phase at 10 uM after 72 hrs by propidium iodide staining based flow cytometry (reference value: 6.7%); assay type: cell-based
PANC-1 [18] = assay: Induction of apoptosis in human PANC1 cells assessed as accumulation at sub-G0/G1 phase at 20 uM after 24 hrs by propidium iodide staining based flow cytometry (reference value: 0.6 to 0.7%); assay type: functional
BXPC-3 [19] = assay: Induction of apoptosis in human BxPC3 cells assessed as accumulation at sub-G0/G1 phase harboring pSFFV-Bcl-XL at 20 uM after 72 hrs by propidium iodide staining based flow cytometry (reference value: 1.3%); assay type: functional
BXPC-3 [20] = assay: Induction of apoptosis in human BxPC3 cells assessed as accumulation at sub-G0/G1 phase at 10 uM after 48 hrs by propidium iodide staining based flow cytometry (reference value: 2.8%); assay type: functional
PK9 [21] = assay: Induction of apoptosis in human PK9 cells assessed as accumulation at sub-G0/G1 phase at 20 uM after 48 hrs by propidium iodide staining based flow cytometry (reference value: 3.8%); assay type: functional
BXPC-3 [22] = assay: Induction of apoptosis in human BxPC3 cells assessed as accumulation at sub-G0/G1 phase at 10 uM after 24 hrs by propidium iodide staining based flow cytometry (reference value: 1.8%); assay type: functional
BXPC-3 [23] = assay: Induction of apoptosis in human BxPC3 cells harboring pSFFV-Bcl-XL assessed as accumulation at sub-G0/G1 phase at 10 uM after 72 hrs by propidium iodide staining based flow cytometry (reference value: 2%); assay type: functional
BXPC-3 [24] = assay: Induction of apoptosis in human BxPC3 cells assessed as accumulation at sub-G0/G1 phase harboring pSFFV-Bcl-XL at 20 uM after 24 hrs by propidium iodide staining based flow cytometry (reference value: 1.2%); assay type: functional
PANC-1 [25] = assay: Induction of apoptosis in human PANC1 cells assessed as accumulation at sub-G0/G1 phase at 10 uM after 72 hrs by propidium iodide staining based flow cytometry (reference value: 1.6 to 3.2%); assay type: functional
BXPC-3 [26] = assay: Induction of apoptosis in human BxPC3 cells assessed as accumulation at sub-G0/G1 phase harboring pSFFV-Bcl-XL at 20 uM after 48 hrs by propidium iodide staining based flow cytometry (reference value: 1.3%); assay type: functional
[27] = Induction of apoptosis in HPNE cells assessed as accumulation at sub-G0/G1 phase at 10 uM after 24 hrs by propidium iodide staining based flow cytometry (reference value: 0.6%); assay type: cell-based; conditions: human
[28] = Induction of apoptosis in HPNE cells assessed as accumulation at sub-G0/G1 phase at 20 uM after 72 hrs by propidium iodide staining based flow cytometry (reference value: 6.6%); assay type: cell-based; conditions: human
Fibroblast [29] = assay: Induction of apoptosis in human primary fibroblasts assessed as accumulation at sub-G0/G1 phase at 10 uM after 24 hrs by propidium iodide staining based flow cytometry (reference value: 4.8%); assay type: cell-based
Fibroblast [30] = assay: Induction of apoptosis in human primary fibroblasts at 20 uM after 24 hrs by propidium iodide staining based flow cytometry (reference value: 4.8%); assay type: cell-based
Fibroblast [31] = assay: Induction of apoptosis in human primary fibroblasts assessed as accumulation at sub-G0/G1 phase at 10 uM after 48 hrs by propidium iodide staining based flow cytometry (reference value: 6.1%); assay type: cell-based
Fibroblast [32] = assay: Induction of apoptosis in human primary fibroblasts at 20 uM after 72 hrs by propidium iodide staining based flow cytometry (reference value: 6.7%); assay type: cell-based
PANC-1 [33] = assay: Induction of apoptosis in human PANC1 cells assessed as accumulation at sub-G0/G1 phase at 10 uM after 24 hrs by propidium iodide staining based flow cytometry (reference value: 0.6 to 0.7%); assay type: functional
PANC-1 [34] = assay: Induction of apoptosis in human PANC1 cells assessed as accumulation at sub-G0/G1 phase at 10 uM after 48 hrs by propidium iodide staining based flow cytometry (reference value: 0.2 to 2.9%); assay type: functional
[35] = Induction of apoptosis in HPNE cells assessed as accumulation at sub-G0/G1 phase at 10 uM after 48 hrs by propidium iodide staining based flow cytometry (reference value: 0.7%); assay type: cell-based; conditions: human
BXPC-3 [36] = assay: Induction of apoptosis in human BxPC3 cells assessed as accumulation at sub-G0/G1 phase at 20 uM after 72 hrs by propidium iodide staining based flow cytometry (reference value: 3.4%); assay type: functional
PANC-1 [37] = assay: Growth inhibition of human PANC1 cells after 72 hrs by XTT assay; assay type: functional, cell-based; conditions: PANC-1, 72 h
Fibroblast [38] = assay: Induction of apoptosis in human primary fibroblasts at 5 to 40 uM after 24 to 72 hrs by Annexin V/7-AAD staining based flow cytometry; assay type: cell-based
BXPC-3 [39] = assay: Growth inhibition of human BxPC3 cells after 72 hrs by XTT assay; assay type: functional, cell-based; conditions: BXPC-3, 72 h
[40] = Induction of apoptosis in HPNE cells at 5 to 40 uM after 24 to 72 hrs by Annexin V/7-AAD staining based flow cytometry; assay type: cell-based; conditions: human
PK9 [41] = assay: Induction of apoptosis in human PK9 cells at 5 to 40 uM after 24 to 72 hrs by Annexin V/7-AAD staining based flow cytometry; assay type: functional, cell-based

IC50 (HeLa): 4 µM
Compound: Cl.O[C@H]1CN[C@H](COCCCCCCCCC/C=C/c2ccc(-c3ccccc3)cc2)C1
Activity (Fibroblast [1]): 21.7%
Activity (BXPC-3 [2]): 12.7%
Activity (PANC-1 [3]): 66.2%
Activity (PK9 [4]): 84.9%
Activity (BXPC-3 [5]): 59.3%
Activity (BXPC-3 [6]): 2.6%
Activity (PK9 [7]): 35.1%
Activity (PK9 [8]): 39.4%
Activity [9]: 93.4%
Activity (PK9 [10]): 30.4%
Activity (BXPC-3 [11]): 59.3%
Activity (PANC-1 [12]): 38%
Activity (BXPC-3 [13]): 10%
Activity [14]: 93.5%
Activity (PK9 [15]): 9.6%
Activity [16]: 83.1%
Activity (Fibroblast [17]): 22.1%
Activity (PANC-1 [18]): 17.6%
Activity (BXPC-3 [19]): 49.7%
Activity (BXPC-3 [20]): 34.6%
Activity (PK9 [21]): 77.4%
Activity (BXPC-3 [22]): 22.1%
Activity (BXPC-3 [23]): 15.7%
Activity (BXPC-3 [24]): 7.3%
Activity (PANC-1 [25]): 56.2%
Activity (BXPC-3 [26]): 11.4%
Activity [27]: 80.6%
Activity [28]: 98.3%
Activity (Fibroblast [29]): 9.5%
Activity (Fibroblast [30]): 17.2%
Activity (Fibroblast [31]): 11.7%
Activity (Fibroblast [32]): 33.7%
Activity (PANC-1 [33]): 8.8%
Activity (PANC-1 [34]): 23.2%
Activity [35]: 83.5%
Activity (BXPC-3 [36]): 72%

IC50 (PANC-1 [37]): 5.7 µM
IC50 (BXPC-3 [39]): 6 µM
Compound: Cl.NCC(=O)N1CCC[C@H]1COCCCCCC/C=C/c1ccc(-c2ccccc2)cc1
Activity (PANC-1 [3]): 24.7%
Activity (PANC-1 [12]): 6.3%
Activity (Fibroblast [38]): Toxic
Activity (PANC-1 [18]): 1.5%
Activity (PANC-1 [25]): 9.5%
Activity [40]: Toxic
Activity (PANC-1 [33]): 0.9%
Activity (PANC-1 [34]): 6.1%
Activity (PK9 [41]): Active

IC50 (PANC-1 [37]): 7.7 µM
IC50 (BXPC-3 [39]): 5.3 µM
Compound: CCCCCCCC/C=C\CCCCCCCCOC[C@@H]1CCCN1C(=O)CN.Cl
Activity (PANC-1 [3]): 50.3%
Activity (PANC-1 [12]): 7.9%
Activity (Fibroblast [38]): Toxic
Activity (PANC-1 [18]): 2.2%
Activity (PANC-1 [25]): 52.9%
Activity [40]: Toxic
Activity (PANC-1 [33]): 2.4%
Activity (PANC-1 [34]): 13.7%
Activity (PK9 [41]): Active
